# Assay: Human HepG2 cell viability assay in 384 well format
# Type: toxicity, cell-based
# Parameters: dose 125 nL, time 70.5 hour; cytotoxicity at 70.5 h: concentration not given beside the values
# Conditions: HepG2 cells, read-out: Inhibition
row,SMILES,cytotoxicity at 70.5 h [%]
1,CC(=O)CSc1nc2c(cnn2CCO)c(=O)[nH]1,21.3
2,CC1CN(C)CCN1C(=O)NCCCn1ccnc1 (centres undefined),-1.11
3,CCc1nc(C)c(C2CC(=O)Nc3c2c(-c2cccnc2)nn3C)[nH]1 (centres undefined),-5.87
4,CC1CCc2nn(CCNC(=O)Cc3ccc(F)cc3)c(=O)cc2C1 (centres undefined),-4.91
5,CCCC(C)N(C)Cc1nnc(-c2ccco2)o1 (centres undefined),1.45
6,CCc1noc(CN2CCCN(C(C)=O)CC2)n1,-6.42
7,C1CN(CC2CC2)C(COCC2CC2)c2nnn(CC3CC3)c21 (centres undefined),-12.9
8,Cn1ccnc1CNC(=O)Nc1ccc(OC2CCC2)c(F)c1,20
9,CCOc1ccccc1C(=O)Nn1c(C)cc(C)cc1=O,-6.5
10,CC(=O)c1c(F)cccc1NCC(O)C1CC1 (centres undefined),-19.1
11,O=C(N[C@@H]1CN[C@@H]2CCCO[C@@H]21)c1cscn1,-3.45
12,O=C1CC2(CCN(C(=O)c3ccc4c(c3)CCCO4)C2)C(=O)N1 (centres undefined),2.37
13,CN(C)C(=O)N1CCN(C(=O)c2ccc(Cl)cc2)CC2(CNC(=O)C2)C1 (centres undefined),11
14,CCCOc1c(CNC2CCSC2)cccc1OC (centres undefined),-11.2
15,CN(Cc1cc(F)cc2cccnc12)CC1CCN(CCO)CC1,-8.39
16,O=C1CC[C@H]2[C@H](CCN2S(=O)(=O)C2CC2)N1CCN1CCCC1,25.5
17,N#Cc1cccnc1NCCC1CCN(CC(F)(F)F)CC1,-5
18,Cc1cc(NC(=O)c2nn(C3CCS(=O)(=O)C3)c3c2CCCC3)no1 (centres undefined),-24.1
19,Cc1cc(NC(=O)Cn2ncc(SCC(N)=O)c(Cl)c2=O)ccc1Br,-5.33
20,Cn1cc(C(=O)Nc2ccc(CN3CCOCC3)cn2)cn1,-4.82
21,O[C@@H]1C[C@@H](c2nc(-c3ccc(OC(F)(F)F)cc3)no2)N(CC2CC2)C1,-4.09
22,Cc1ccc(C)c2c(O)cc(CN3CCC(c4nncn4C)CC3)nc12,0.0856
23,O=C(CSc1nnc2n1N=CN(c1ccccc1)C2)c1ccccc1,-7.5

row,SMILES,cytotoxicity at 70.5 h [%]
1,Cn1nc2c(cc1=O)CN(Cc1coc(-c3cccs3)n1)CC2,-7.48
2,Cc1ncc(-c2ccnc(N3CCC[C@@H]3CO)n2)c(-c2cccnc2)n1,-3.34
3,CC(Cn1cccn1)NS(=O)(=O)Cc1ccc(F)cc1 (centres undefined),5.43
4,CCOc1cc(C(=O)N(C)C)ccc1NC(=O)c1ccsc1,-9.1
5,COc1ccc(-c2cc(C3CCN(C(C)=O)CC3)ccn2)cc1,-7.99
6,Cc1nc(CN2CCC(NS(C)(=O)=O)CC2)co1,-9.09
7,COCC(O)CN(C)C(=O)NCc1ccc(-c2ccn[nH]2)cc1 (centres undefined),-85.9
8,COCC(=O)N1CCN(c2cc(-n3cccc3)nc(C)n2)CC1,5.98
9,Cc1cc(C)c(CNC(=O)C(C)Oc2ccccc2C#N)c(=O)[nH]1 (centres undefined),-13.5
10,Cc1cc(F)ccc1C(=O)N1CCN(C)C2(CCC(=O)N(C)CC2)C1 (centres undefined),-9.21
11,Cc1cc2c(c(-c3cnccn3)c1)OC(CN)C2 (centres undefined),-6.44
12,O=C(Nc1cccc(OCc2ccc(F)cc2)c1)C1COCCO1 (centres undefined),-4.75
13,CN1CCN(Cc2cn3c(n2)CN(C(=O)N2CCCC2)CC3)CC1,0.892
14,CCS(=O)(=O)NCCNC(C)(C)c1nc(C)cs1,-2.97
15,N[C@H]1CN(C(=O)Cc2cc(F)cc(Cl)c2)C[C@@H]1C1CC1,-3.32
16,O=C(c1ccc(C2CCCN2)s1)N1CCC2(CCCO2)CC1 (centres undefined),-6.68
17,Cn1ccnc1C(=O)NCc1cnc2n1CCN(CC1CC1)CC2,-0.996
18,CCN(CC)S(=O)(=O)NC1CCCc2nc(-c3ccccc3)ncc21 (centres undefined),-7.72
19,Cc1noc(Cl)c1CCC(=O)N1CCN(c2ccccc2)CC1,7.33
20,Cc1cccc(CN2CCC3(CCCN(CC(=O)N(C)C)C3)C2)n1 (centres undefined),7.75
21,CC(C)NC(=O)CCNC(=O)c1c(Br)c2ccccc2n1C,-0.338
22,O=C(c1ccn(-c2cccc(Cl)c2)n1)N1CCN(CCO)CC1,0.676
23,CC(C)C1Nc2ccccc2C(=O)N1CC(=O)Nc1nc2c(s1)CCC2 (centres undefined),-15.3

row,SMILES,cytotoxicity at 70.5 h [%]
1,CN1CCN(C[C@@H]2CN(C(=O)CC3CCCCC3)C[C@@H]2CO)CC1,0.234
2,O=C(c1ccccc1)N1CCC[C@]2(C[C@@H](OCc3ccncc3)CO2)C1,-4.9
3,Cc1cc(=O)[nH]cc1C(=O)N1Cc2ccccc2N(C)CC1C (centres undefined),26
4,CN(C(=O)Cc1coc(-c2ccccc2)n1)C1(C#N)CCC1,1.14
5,Cc1nc(CN2C(=O)CC[C@@H]3[C@H]2CCN3C(=O)NC2CC2)cs1,21.8
6,CCC(CC)N1CCC(c2[nH]ncc2S(C)(=O)=O)C1 (centres undefined),-5.29
7,CC(C)(O)CN1CCN(C(=O)COC2CCCC2)CC1,-2.37
8,c1cc(CNCCc2cn3ccccc3n2)c2c(c1)OCCCO2,-6.72
9,Cc1nc(COc2ccc(N(C)S(C)(=O)=O)cc2)sc1C,48
10,C[C@@H]1CN(C2CCOCC2)C[C@]12CCN(c1cccnc1)C2=O,-5.4
11,Cc1nc2n(n1)CC(Nc1cc(C(F)(F)F)nc3ncnn13)CC2 (centres undefined),-0.866
12,O=C(c1cc(COc2ccc3c(c2)OCO3)[nH]n1)N1CCCC1,-5.85
13,Cc1ccc(CN2CCn3c(CN4CCN(C)CC4)cnc3C2C)s1 (centres undefined),21.3
14,O=C(O)c1nnn(Cc2cccc(C(F)(F)F)c2)c1-c1cccnc1,-30.6
15,COc1ccccc1C1CNCCN1C(C)=O (centres undefined),-15.3
16,c1csc(-c2nc(CNCCn3cccn3)cs2)c1,-7.37
17,c1ccc(Cn2cc3c(n2)C(CNCc2ccco2)OCC3)nc1 (centres undefined),-0.917
18,Cc1ncsc1C(=O)NCc1cccs1,-16.4
19,COc1ccc([C@@H]2CN(C(=O)c3cscn3)C[C@H]2C(=O)O)cc1,-3.2
20,Cc1nc(CN2CCN(C)C(=O)C23CCN(CC2CCCC2)CC3)cs1,-9.21
21,CCc1nc(C2CCCN2CCCc2nc3ccccc3o2)no1 (centres undefined),-0.084
22,CCn1ccnc1CN(C)c1cc(OC)ncn1,-8.04
23,Cc1ccc(NC(=O)Cc2cnc3n(C)c(=O)[nH]c(=O)n23)cc1,-8.62

row,SMILES,cytotoxicity at 70.5 h [%]
1,Cc1noc(C)c1CS(=O)(=O)CC(=O)N1CCc2sccc2C1,-3.02
2,CN1C(=O)C(C)(C)COc2ccc(NS(=O)(=O)Cc3ccccc3)cc21,5.22
3,CCc1noc(CNc2ccc(CC(=O)N3CCSCC3)cc2)n1,-6.52
4,CCOc1ccc(N(C)Cc2nnc(C3CC3)o2)cc1,-2.24
5,O=C(c1ccsc1)N1CCc2nnc(COc3cncnc3)n2CC1,26.7
6,Cc1cnccc1NC(=O)CCc1ccsc1,-13.1
7,CCCOc1ccccc1NCC(=O)Nc1ccc(CC)cc1,-6.36
8,Cc1nc(CO[C@H]2CN(Cc3cccs3)[C@@H]3COC[C@H]23)cs1,-3.05
9,COC(=O)c1ccoc1COC(=O)CCc1ccc(OC)c(OC)c1,-15.4
10,CC(C)n1cnnc1CNC(=O)CCCOc1ccccc1F,-11.9
11,COc1ccc(CC(=O)Nc2c(C)nc(N3CCCC3)nc2C)cc1,-2.54
12,Cc1ncnc2c1CCN(C(=O)c1ccncc1F)CC2,-8.13
13,O=C(c1cnc(-c2ccccc2)s1)N1CCOC2(CCCC2)C1,-3.97
14,CC(=O)N1CCN(Cc2ccc(F)cc2)CC2(CC(=O)N(C)C2)C1 (centres undefined),23.3
15,CN1CCN(S(C)(=O)=O)c2cc(F)ccc21,-14.8
16,N#Cc1ccc(C(=O)O)nc1/C=C/c1cccc(Br)c1,-4.7
17,CCc1nnc(CNCC2CCN(CC(O)c3ccccc3)CC2)o1 (centres undefined),15.4
18,CN(Cc1cncnc1)Cc1cn2c(n1)CN(C1CCOC1)CC2 (centres undefined),-13.2
19,Cc1ccc(CN2CC(C(=O)Nc3ccccc3)C3(CCOCC3)C2)o1 (centres undefined),-12.3
20,CCO[C@@H]1CC[C@H]2[C@H]1OCCN2C(=O)c1ccc(OC)c(F)c1,-4.73
21,CCOCCC(=O)NCC(C)c1ccsc1 (centres undefined),-5.93
22,OC1CCCN(Cc2ccc(F)c3cccnc23)C1 (centres undefined),-0.871
23,COCC1Cn2nnc(-c3cnn(C)c3)c2CN1Cc1ccoc1 (centres undefined),-8.84

row,SMILES,cytotoxicity at 70.5 h [%]
1,COc1ccc(N2CCCN(C(=O)Cc3csc(C)n3)CC2)cc1,0.0529
2,CCNC(=O)CN1CCCC(c2ccc(C(=O)O)cc2)C1 (centres undefined),31.1
3,COc1ccc(CN(C)CCS(=O)(=O)c2ccc(Cl)cc2)cc1OC,-12.9
4,Cn1cnc2c1C(COCC1CCOCC1)CN(C1CCOCC1)C2 (centres undefined),-25.6
5,CCc1nnc(C(C)N2CCCN(C(=O)Oc3ccccc3)CC2)o1 (centres undefined),2.06
6,CC(NC(=O)NCc1cccnc1N(C)C)c1ccc(F)cc1 (centres undefined),-23.2
7,CC(=O)N1CCCCC1c1cc(C(=O)N2CCOCC2)[nH]n1 (centres undefined),-7.33
8,COCC(=O)N1CCC2(CC1)CN(c1ccsc1)C(=O)CO2,-8.62
9,Cc1cccnc1CN(C)C(C(=O)O)c1ccc(C(C)(C)C#N)cc1 (centres undefined),-0.799
10,CC(C)c1nsc(N2CCC(OCCN3CCOCC3)CC2)n1,-22.2
11,c1ccc(-c2nc(CN3CCCC3Cn3cccn3)no2)cc1 (centres undefined),1.06
12,O=C(COc1ccccc1)N1C[C@@H]2COC[C@]2(COc2cccnc2)C1,4.76
13,O=C(NCCn1nc(C2CCNC2)c2cccnc21)C1CC1 (centres undefined),-1.28
14,CCS(=O)(=O)c1ccc(N2CCC(NC(C)=O)CC2)cc1,-5.9
15,Cc1nnc([C@H]2C[C@@H]3CCN(C(=O)C4CCOCC4)C[C@H]3O2)[nH]1,-9.85
16,Cn1ccc(C(=O)NCc2cccc(NC(=O)C3CCC3)c2)cc1=O,-13.3
17,CC(C)COC1CC2(CCN(Cc3nccn3C)CC2)C1,6.92
18,COC(=O)CC(NC(=O)c1cccc(N2CCCC2=O)c1)c1cccs1 (centres undefined),4.95
19,CN1CCN(C[C@@H]2OC[C@H]3CN(CCc4ccccc4)CC[C@H]32)CC1,-0.223
20,NC(=O)c1cnn2c1NCC(CNCCCc1ccccc1)C2 (centres undefined),-6.83
21,Cc1noc(C)c1-c1n[nH]c2c1CN(S(=O)(=O)c1cccs1)CC2,0.699
22,COc1ccccc1NC(=O)CCNC(=O)c1ccoc1,0.887
